Measurements taken from US9115126B2, “1H-[1,2,3]triazolo[4,5-c]pyridine-4-carbonitrile derivatives” (Merck Sharp & Dohme B.V., priority 2010, dated 2015).
Structures can show the parent of a compound that is named as a salt.

What follows are compounds tested against recombinant human Cathepsin S (Homo sapiens (Human), UniProt P25774) (assay: Cathepsin S assay procedure (fluorogenic substrate Z-Val-Val-Arg-AMC)). Conditions: pH5.5, fluorescence at 20 minutes, read-out: Cat S activity IC50.
Type: biochemical
Description: 25 μl of a 2 mg/l solution of activated recombinant human cathepsin S, in assay buffer, is then added to the well, yielding a final inhibitor concentration of 10 μM.
Enzyme activity is determined by measuring the fluorescence of the liberated aminomethylcoumarin at […] using 390 nm excitation, at 20 minutes. Percentage enzyme activity is calculated by comparison of this activity to that of a solution containing no inhibitor.

Chain of recombinant human Cathepsin S (P25774 115-331): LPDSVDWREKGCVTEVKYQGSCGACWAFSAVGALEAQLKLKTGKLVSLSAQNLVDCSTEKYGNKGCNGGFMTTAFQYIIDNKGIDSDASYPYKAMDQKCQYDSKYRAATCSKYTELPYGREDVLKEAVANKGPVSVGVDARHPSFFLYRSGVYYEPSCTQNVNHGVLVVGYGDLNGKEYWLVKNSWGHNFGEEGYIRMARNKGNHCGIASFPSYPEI

IC50	SMILES
26 nM	Cc1cccc(N2CCC(CCOc3ccc(-c4cc5c(ncn5C)c(C#N)n4)cc3C(F)(F)F)CC2)n1 [EP 09150709.5 - Example 24c, reference compound]
0.8 nM	Cn1nnc2c(C#N)nc(-c3ccc(OCCC4CCNCC4)c(C(F)(F)F)c3)cc21 [Example 1, 1-methyl-6-(4-(2-(piperidin-4-yl)ethoxy)-3-(trifluoromethyl)phenyl)-1H-[1,2,3]triazolo[4,5-c]pyridine-4-carbonitrile]
9 nM	Cc1cccc(N2CCC(CCOc3ccc(-c4cc5c(nnn5C)c(C#N)n4)cc3C(F)(F)F)CC2)n1 [Example 4b, 1-methyl-6-(4-(2-(1-(6-methylpyridin-2-yl)piperidin-4-yl)ethoxy)-3-(trifluoromethyl)phenyl)-1H-[1,2,3]triazolo[4,5-c]pyridine-4-carbonitrile hydrochloride]
3.3 nM	CN(C)CCCOc1ccc(-c2cc3c(nnn3C)c(C#N)n2)cc1C(F)(F)F [Example 35, 6-(4-(3-(dimethylamino)propoxy)-3-(trifluoromethyl)phenyl)-1-methyl-1H-[1,2,3]triazolo[4,5-c]pyridine-4-carbonitrile]

Same assay, conditions: read-out: pIC50 (negative logarithm of the IC50 concentration) for inhibition of human cathepsin S (converted)

SMILES	IC50
Cn1nnc2c(C#N)nc(-c3ccc(OCCC4CCNCC4)c(C(F)(F)F)c3)cc21 [Example 1, 1-methyl-6-(4-(2-(piperidin-4-yl)ethoxy)-3-(trifluoromethyl)phenyl)-1H-[1,2,3]triazolo[4,5-c]pyridine-4-carbonitrile]	< 10 nM
Cc1ccc(N2CCC(CCOc3ccc(-c4cc5c(nnn5C)c(C#N)n4)cc3C(F)(F)F)CC2)nc1 [Example 8, 1-methyl-6-(4-(2-(1-(5-methylpyridin-2-yl)piperidin-4-yl)ethoxy)-3-(trifluoromethyl)phenyl)-1H-[1,2,3]triazolo[4,5-c]pyridine-4-carbonitrile hydrochloride]	< 10 nM
Cn1nnc2c(C#N)nc(-c3ccc(OCCC4CCN(CCS(C)(=O)=O)CC4)c(C(F)(F)F)c3)cc21 [Example 19, 1-methyl-6-(4-(2-(1-(2-(methylsulfonyl)ethyl)piperidin-4-yl)ethoxy)-3-(trifluoromethyl)phenyl)-1H-[1,2,3]triazolo[4,5-d]pyridine-4-carbonitrile]	< 10 nM
Cn1nnc2c(C#N)nc(-c3ccc(OCc4ccccn4)c(C(F)(F)F)c3)cc21 [Example 20, 1-methyl-6-(4-(pyridin-2-ylmethoxy)-3-(trifluoromethyl)phenyl)-1H-[1,2,3]triazolo[4,5-c]pyridine-4-carbonitrile]	< 10 nM
Cn1nnc2c(C#N)nc(-c3ccc(OCc4cccc[n+]4[O-])c(C(F)(F)F)c3)cc21 [Example 21, 1-methyl-6-(4-(1-N-oxy-pyridin-2-ylmethoxy)-3-(trifluoromethyl)phenyl)-1H-[1,2,3]triazolo[4,5-c]pyridine-4-carbonitrile]	< 10 nM
Cn1nnc2c(C#N)nc(-c3ccc(OCc4cccnc4)c(C(F)(F)F)c3)cc21 [Example 22, 1-methyl-6-(4-(pyridin-3-ylmethoxy)-3-(trifluoromethyl)phenyl)-1H-[1,2,3]triazolo[4,5-c]pyridine-4-carbonitrile]	< 10 nM
Cn1nnc2c(C#N)nc(-c3ccc(OCc4ccc[n+]([O-])c4)c(C(F)(F)F)c3)cc21 [Example 23, methyl-6-(4-(1-N-oxy-pyridin-3-ylmethoxy)-3-(trifluoromethyl)phenyl)-1H-[1,2,3]triazolo[4,5-c]pyridine-4-carbonitrile]	< 10 nM
Cn1nnc2c(C#N)nc(-c3ccc(OCc4ccncc4)c(C(F)(F)F)c3)cc21 [Example 24, 1-methyl-6-(4-(pyridin-4-ylmethoxy)-3-(trifluoromethyl)phenyl)-1H-[1,2,3]triazolo[4,5-c]pyridine-4-carbonitrile]	< 10 nM
Cn1nnc2c(C#N)nc(-c3ccc(OCc4cc[n+]([O-])cc4)c(C(F)(F)F)c3)cc21 [Example 25, methyl-6-(4-(1-N-oxy-pyridin-4-ylmethoxy)-3-(trifluoromethyl)phenyl)-1H-[1,2,3]triazolo[4,5-c]pyridine-4-carbonitrile]	< 10 nM
Cn1nnc2c(C#N)nc(-c3cnc(OCCC4CCNCC4)c(C(F)(F)F)c3)cc21 [Example 26, 1-Methyl-6-(6-(2-(piperidin-4-yl)ethoxy)-5-(trifluoromethyl)pyridin-3-yl)-1H-[1,2,3]-triazolo[4,5-c]pyridine-4-carbonitrile trifluoroacetate]	< 10 nM
Cn1nnc2c(C#N)nc(-c3ccc(OCCC4CCN(C(=O)C5(N)CC5)CC4)c(C(F)(F)F)c3)cc21 [Example 29, 6-(4-(2-(1-(1-aminocyclopropanecarbonyl)piperidin-4-yl)ethoxy)-3-(trifluoromethyl)phenyl)-1-methyl-1H-[1,2,3]triazolo[4,5-d]pyridine-4-carbonitrile]	< 10 nM
Cn1nnc2c(C#N)nc(-c3ccc(OCCC4CNC4)c(C(F)(F)F)c3)cc21 [Example 30, 6-(4-(2-(azetidin-3-yl)ethoxy)-3-(trifluoromethyl)phenyl)-1-methyl-1H-[1,2,3]triazolo[4,5-d]pyridine-4-carbonitrile 2,2,2-trifluoroacetate]	< 10 nM
CN(C)C(=O)CN1CC(CCOc2ccc(-c3cc4c(nnn4C)c(C#N)n3)cc2C(F)(F)F)C1 [Example 31, 6-(4-(2-(1-(2-dimethylamino-2-oxoethyl)azetidin-3-yl)ethoxy)-3-(trifluoromethyl)phenyl)-1-methyl-1H-[1,2,3]triazolo[4,5-c]pyridine-4-carbonitrile Hydrochloride]	< 10 nM
Cn1nnc2c(C#N)nc(-c3ccc(OCCCO)c(C(F)(F)F)c3)cc21 [Example 32, 6-(4-(3-hydroxypropoxy)-3-(trifluoromethyl)phenyl)-1-methyl-1H-[1,2,3]triazolo[4,5-c]pyridine-4-carbonitrile]	< 10 nM
CN(C)CCCOc1ccc(-c2cc3c(nnn3C)c(C#N)n2)cc1C(F)(F)F [Example 35, 6-(4-(3-(dimethylamino)propoxy)-3-(trifluoromethyl)phenyl)-1-methyl-1H-[1,2,3]triazolo[4,5-c]pyridine-4-carbonitrile]	< 10 nM

Next, values leading:

IC50	SMILES
< 10 nM	CNC(=O)CN1CCC(CCOc2ccc(-c3cc4c(nnn4C)c(C#N)n3)cc2C(F)(F)F)CC1 [Example 2b, 1-methyl-6-(4-(2-(1-(2-methylamino-2-oxoethyl)piperidin-4-yl)ethoxy)-3-(trifluoromethyl)phenyl)-1H-[1,2,3]triazolo[4,5-c]pyridine-4-carbonitrile TFA salt]
< 10 nM	Cn1nnc2c(C#N)nc(-c3ccc(OCCC4CCN(CC(N)=O)CC4)c(C(F)(F)F)c3)cc21 [Example 2c, 6-(4-(2-(1-(2-amino-2-oxoethyl)piperidin-4-yl)ethoxy)-3-(trifluoromethyl)phenyl)-1-methyl-1H-[1,2,3]triazolo[4,5-c]pyridine-4-carbonitrile]
< 10 nM	Cn1nnc2c(C#N)nc(-c3ccc(OCCC4CCN(Cc5ncon5)CC4)c(C(F)(F)F)c3)cc21 [Example 3c, 6-(4-(2-(1-((1,2,4-oxadiazol-3-yl)methyl)piperidin-4-yl)ethoxy)-3-(trifluoromethyl)phenyl)-1-methyl-1H-[1,2,3]triazolo[4,5-c]pyridine-4-carbonitrile]
< 10 nM	Cn1nnc2c(C#N)nc(-c3ccc(OCCC4CCN(Cc5ncno5)CC4)c(C(F)(F)F)c3)cc21 [Example 3k, 6-(4-(2-(1-((1,2,4-oxadiazol-5-yl)methyl)piperidin-4-yl)ethoxy)-3-(trifluoromethyl)phenyl)-1-methyl-1H-[1,2,3]triazolo[4,5-c]pyridine-4-carbonitrile]
< 10 nM	Cn1nnc2c(C#N)nc(-c3ccc(OCCC4CCN(c5ccccn5)CC4)c(C(F)(F)F)c3)cc21 [Example 4a, 1-methyl-6-(4-(2-(1-(pyridin-2-yl)piperidin-4-yl)ethoxy)-3-(trifluoromethyl)phenyl)-1H-[1,2,3]triazolo[4,5-c]pyridine-4-carbonitrile hydrochloride]
< 10 nM	Cc1cccc(N2CCC(CCOc3ccc(-c4cc5c(nnn5C)c(C#N)n4)cc3C(F)(F)F)CC2)n1 [Example 4b, 1-methyl-6-(4-(2-(1-(6-methylpyridin-2-yl)piperidin-4-yl)ethoxy)-3-(trifluoromethyl)phenyl)-1H-[1,2,3]triazolo[4,5-c]pyridine-4-carbonitrile hydrochloride]
< 10 nM	Cc1ccc(N2CC[C@@H](CCOc3ccc(-c4cc5c(nnn5C)c(C#N)n4)cc3C(F)(F)F)C2)nc1 [Example 9a, (S)-1-methyl-6-(4-(2-(1-(5-methylpyridin-2-yl)pyrrolidin-3-yl)ethoxy)-3-(trifluoromethyl)phenyl)-1H-[1,2,3]triazolo[4,5-c]pyridine-4-carbonitrile hydrochloride]
< 10 nM	Cc1ccc(N2CC[C@H](CCOc3ccc(-c4cc5c(nnn5C)c(C#N)n4)cc3C(F)(F)F)C2)nc1 [Example 9b, (R)-1-methyl-6-(4-(2-(1-(5-methylpyridin-2-yl)pyrrolidin-3-yl)ethoxy)-3-(trifluoromethyl)phenyl)-1H-[1,2,3]triazolo[4,5-c]pyridine-4-carbonitrile hydrochloride]
< 10 nM	CN(C)C(=O)CN1CCC(CCOc2ncc(-c3cc4c(nnn4C)c(C#N)n3)cc2C(F)(F)F)CC1 [Example 27a, 6-(6-(2-(1-(2-Dimethylamino-2-oxo-ethyl)piperidin-4-yl)ethoxy)-5-(trifluoromethyl)pyridin-3-yl)-1-methyl-1H-[1,2,3]triazolo[4,5-c]pyridine-4-carbonitrile hydrochloride]
< 10 nM	CCN(CC)CCCOc1ccc(-c2cc3c(nnn3C)c(C#N)n2)cc1C(F)(F)F [Example 36q, 6-(4-(3-(diethylamino)propoxy)-3-(trifluoromethyl)phenyl)-1-methyl-1H-[1,2,3]triazolo[4,5-c]pyridine-4-carbonitrile]
< 10 nM	Cn1nnc2c(C#N)nc(-c3ccc(OCCCN4CCN(CCO)CC4)c(C(F)(F)F)c3)cc21 [Example 36t, 6-(4-(3-(4-(2-hydroxyethyl)piperazin-1-yl)propoxy)-3-(trifluoromethyl)phenyl)-1-methyl-1H-[1,2,3]triazolo[4,5-c]pyridine-4-carbonitrile dihydrochloride]
< 10 nM	Cn1nnc2c(C#N)nc(-c3ccc(OCCCN4CCN(CC(C)(C)O)CC4)c(C(F)(F)F)c3)cc21 [Example 36u, 6-(4-(3-(4-(2-hydroxy-2-methylpropyl)piperazin-1-yl)propoxy)-3-(trifluoromethyl)phenyl)-1-methyl-1H-[1,2,3]triazolo[4,5-c]pyridine-4-carbonitrile dihydrochloride]
< 10 nM	CNC(=O)CN1CCN(CCCOc2ccc(-c3cc4c(nnn4C)c(C#N)n3)cc2C(F)(F)F)CC1 [Example 36v, 2-(4-(3-(4-(4-cyano-1-methyl-1H-[1,2,3]triazolo[4,5-c]pyridin-6-yl)-2-(trifluoromethyl)phenoxy)propyl)piperazin-1-yl)-N-methylacetamide dihydrochloride]
